Consider six compounds from publication PMC10178932, “The Antiangiogenic Effect and Ocular Pharmacology of Novel Modified Nonsteroidal Anti-Inflammatory Drugs in the Treatment of Oxygen-Induced Retinopathy” (Journal of Ocular Pharmacology and Therapeutics, 2023).

Data set [1] in a line: Uptake and biodistribution of CL-717 in explanted human eyes. It counts as in vitro ADME. As to conditions: explanted human eye, tissues at 1 h, 35.5°C. As to the method:
Human eyes were obtained through the Lions Eye Bank for Long Island, Valley Stream, NY. […] The donor's identity was protected by de-identifying each sample. Following harvesting, they were transported on ice and delivered to the laboratory for study within 2 h after enucleation.
The anterior surface of explanted human eyes was immersed in CL-717 10% solution for 1 or 10 min, followed by washing with ddH2O. The eyes were placed in a Petri dish with their anterior part facing up, and the dish was covered and incubated for 1 h at 35.5°C, the normal in vivo eye temperature.

The subject of data set [2] is chicken chorioallantoic membrane (CAM). In words: Ex ovo chicken chorioallantoic membrane (CAM) angiogenesis assay. It counts as in vivo. As to conditions: 72 h. The protocol:
Fertilized chick eggs were obtained from Charles River Labs (North Franklin, CT) and transferred to a specialized incubator with an automatic rotating device (Grumbach, Lyon Technologies, Inc., Brutgerate GmbH, Germany) for 3 days at 37°C and 70% humidity. After incubation, the eggs were cracked, and the embryo was transferred to a 100 × 25 mm sterilized Petri dish in a laminar flow hood. The eggs were incubated for 7 days and the sterilized filter paper disc containing water, 50 μM of OXT-328, or 50 μM of Q-922, or 100 μM of CL-717 was plated on the yolk sac membrane. The filter papers were treated with each reagent twice per day. Three days later, the angiogenic response was expressed as microvessel density in the CAM area determined under a microscope.[25]

The subject of data set [3] is mice with oxygen-induced retinopathy (OIR). Nature of the data set: Oxygen-induced retinopathy (OIR) mouse model, AVA and NVA in retinal flat mounts. Format: in vivo, mouse (C57BL/6). Conditions: for Avascular area (AVA), percent of total retinal area / Neovascular area (NVA), percent of total retinal area: mean ± SEM. The protocol:
C57BL/6 mice with or without pregnancy (Subline J, specific pathogen-free class) were purchased from Jackson Laboratory, Bar Harbor, ME, and housed in room air (21% oxygen) at 25°C and a 12-h light/12-h dark cycle, with free access to food and water. Animal experiments were designed to provide intralitter control and equal size groups. We used randomization and blinded analysis. After delivery, pups from 1 litter were randomized into groups, and the number of mice in each group was n ≥ 6.
Pup litters together with their mothers were exposed to 75% oxygen from postnatal day 7 (P7) to P12 and returned to room air from P12 to P17.
For retinal flat mounts,[22] on P17, the eyeballs of the mice were enucleated and fixed in 4% paraformaldehyde for 0.5 h. Once the eyeball was fixed, its posterior segment was excised and fixed further in the same solution for 1 h, after which the retina was dissected and fixed again in 4% paraformaldehyde overnight at 4°C. Following this, the retina was washed sequentially as follows: thrice in phosphate-buffered saline (PBS) with 0.1% Tween-20 for 10 min each; in 50% methanol for 10 min; in 100% methanol for 10 min; and thrice in PBS with 0.1% Tween-20 for 10 min each. The retina was then blocked with 1% bovine serum albumin in 0.5% Triton X-100 in PBS for 30 min; incubated with Alexa Fluor 488 conjugated isolectin-B4 overnight at 4°C; washed 4 times in 0.1% Tween-20 in PBS; mounted on a glass slide; and covered with PermaFluorTM aqueous mounting medium.
Retinal flat mounts were imaged with an optical microscope at 10 × magnification, and the avascular area (AVA) and neovascular area (NVA) were delineated with ImageJ, a public domain Java image processing and analysis program. The software provides the user with the ability to determine total image surface area, AVA and NVA. Noncontinguous regions of interest such as AVA and NVA could be outlined and the areas could be summed. Results are expressed as a percent of the total surface area in dimensionless units. The person measuring the AVA and NVA was blinded as to the treatment received by that animal.
Table 1 summarizes the routes of administration of each study drug (OXT-328, Q-922, CL-717). From previous studies, we knew that our lead compound OXT-328 was subject to rapid hydrolysis by carboxylesterases.
(§1) We used a 10% solution of the water-soluble CL-717 in ddH2O with its pH adjusted to 5.0 ± 0.2 with NaOH, and its osmolality to 300 ± 20 mOsm/kg H2O with 18% NaCl. To formulate a 7.15% solution of Q-922 for topical delivery, 71.5 mg of Q-922 was dissolved in 800 μL of a 5% Tween 80/95% normal saline solution, pH 7.0. Additions of 150 μL of 15% solution of polyethylene glycol and 50 μL of 5% solution of Kolliphor EL were made to the Q-922 solution.
(§2) The pH was adjusted to 6.8 and the final volume was 1 mL. Q-922 similar to CL-717 was applied to the ocular surface as 5 μL eye drops when P12 mice were returned to room air. To prepare OXT-328 eye drops, vitamin E TPGS (D-α-tocopheryl polyethylene glycol 1000 succinate) and polyquaternium-1 were dissolved in purified water. OXT-328 (3.5%) was added to this solution, and stirred at 70°C for 30 min. This solution was then centrifuged at 13,200 rpm for 10 min and the supernatant was collected. Mannitol and boric acid were added to the harvested supernatant. After pH adjustment to 6.7 ± 0.2 using NaOH, purified water was added to the final volume. The resulting solution was sterilized by filtration through a 0.22 μm filter.
For intravitreal injections, Q-922 and OXT-328 were formulated as follows: vitamin E TPGS and polyquaternium-1 were dissolved in ddH2O and the respective drug was added, and the solution was stirred at 70°C for 30 min. This solution was then centrifuged at 13,200 rpm for 10 min and the supernatant was collected. Mannitol and boric acid were added to the supernatant to final concentrations of 3.18% (w/v) and 1.2% (w/v), respectively. […]

The nature of data set [4]: in vivo. Conditions: mouse; for Cmax: Retinal Cmax; for Cmax / concentration at 1 h: adult mice; for concentration at 1 h: 1 h after OXT-328 3.5% eye drops (3 drops per eye).
Protocol: (§3) In these studies, we used adult mice, giving us more ocular tissue to work with, even though differences may exist between adult and neonatal tissues. […] The pupils were dilated with topical 1% tropicamide. At different time points after the last eye drop, the mice were euthanized and their corneas and retinas were collected quickly, immediately frozen in liquid nitrogen, and stored at −80°C until analyzed.
(§4) Briefly, each tissue sample was weighed and 100–300 μL ddH2O was added, depending on tissue weight, and homogenized.
On the set-up of data set [5]: method as in PMID 21955327. Conditions: systemically administered, rapidly hydrolyzed; cited from earlier work.
The nature of data set [6]: Ocular pharmacokinetics and biodistribution in adult mice (HPLC tissue levels). As to conditions: for concentration at 1 h: cornea, topical.
Protocol: as §3, §4
Data set [7] can be described thus: Safety: side effects during administration in mice. It counts as in vivo, mouse. As to the method: as §1, §2
[8] abbreviates: 10% eye drops, 5 μL 5x/day, P12-P17.
Setting [9] is: 10% eye drops, 5 μL 5x/day, P12-P17, P17.
Where [10] appears, read: 50 μM on filter disc twice per day.
The mark [11] stands for this setting: single 1 μL intravitreal injection of 1% on P12, retinas on P17.
The mark [12] stands for this setting: adult mice, single 1 μL intravitreal injection of OXT-328 1%.
The mark [13] stands for this setting: read-out: Retinal Cmax, adult mice, single 1 μL intravitreal injection of OXT-328 1%, mean ± SEM.
Setting [14] is: intraperitoneal 100 mg/kg once daily P7-P17.
[15] abbreviates: intraperitoneal 150 mg/kg once daily P7-P17.
[16] abbreviates: intraperitoneal 150 mg/kg once daily P7-P17, P17.
The mark [17] stands for this setting: single 1 μL intravitreal injection of 1% on P12, P17.

Entries after “also recorded” stand apart in the source; their conditions may differ. Bounds are passed on as bounds.

One may read the Tmax as the time at which the peak concentration occurs. A word on the half-life: it is the time in which the quantity being followed falls by half. A lower half-life goes with fast loss. As usually defined, the Cmax is the peak of the concentration-time curve. On to `CCOP(=O)(NCCN1CCN(C(=O)CC2=C(C)/C(=C/c3ccc([S+](C)[O-])cc3)c3ccc(F)cc32)CC1)OCC` (stereo not drawn) [CL-717, (Z)-diethyl 2-(4-(2-(5-fluoro-2-methyl-1-(4-(methylsulfinyl)benzylidene)-1H-inden-3-yl)acetyl)piperazin-1-yl)ethylphosphoramidate], for which, in data set [1] (ocular surface in 10% solution for 1 min), the “CL-717 level in retina” value was 12.6 µM. Moreover, the “CL-717 level in retina” value in data set [1] (ocular surface in 10% solution for 10 min) came out at 46.6 µM. For the same compound, the “Reduction of average new vessel formation versus control” value in data set [2] (100 μM on filter disc twice per day) is reported as 34.2%. Moreover, in data set [3] (setting [8]), the “AVA reduction versus vehicle” value was found to be 65% and the “NVA reduction versus vehicle” value stood at 63%. Further, in data set [3] (setting [9]), the “Avascular area (AVA), percent of total retinal area” value (shortened to “Avascular area (AVA), percent”) is 5.8% ± 0.8% and the “Neovascular area (NVA), percent of total retinal area” value (“Neovascular area (NVA), percent” below) is 8.3% ± 1.6%. In data set [4] (topical or ocular), the time of peak concentration (Tmax) is 0.5 h and the half-life is 4.7 h. The compound also gave a Cmax in data set [4] (topical or ocular, 3 eye drops of CL-717 10% on the ocular surface) of 2.5 µM.
In the case of `CCOP(=O)(OCC)OCCCCOC(=O)CC1=C(C)/C(=C/c2ccc([S+](C)[O-])cc2)c2ccc(F)cc21` (stereo not drawn) [OXT-328, phospho-sulindac], the “Reduction of average new vessel formation versus control” value in data set [2] (setting [10]) came out at 29.3%. Also, the “Level in plasma and many tissues like the eye after systemic administration” value in data set [5] is recorded as “essentially undetectable”. For the same compound, the “Effect on OIR” value in data set [3] (eye drops, data not shown) is given as “no effect”. In addition, in data set [3] (setting [11]), the “Avascular area (AVA), percent” value is on record as 6.9% ± 2.4%. The “Neovascular area (NVA), percent” value in data set [3] (setting [11]) was 5.6% ± 1.9%. The compound also showed a half-life in data set [4] of 4.8 h. For the same compound, the concentration at 1 h in data set [4] (Level in the cornea, mean ± SEM) turned out to be 0 µM; in data set [4] (Level in the retina, mean ± SEM), 0.4 ± 0.2 µM. Also, the Cmax in data set [4] (single 1 μL intravitreal injection of OXT-328 1%, mean ± SEM) was 516 ± 64 µM; in data set [6] (setting [13]) it was 516 ± 64.4 µM. The “Retinal Tmax” value in data set [6] (setting [12]) amounted to 2 h.
On to `CCOP(=O)(NCCCCNC(=O)c1ccccc1SC/C=C(\C)CC/C=C(\C)CCC=C(C)C)OCC` [Q-922, diethyl 4-(2-((2E,6E)-3,7,11-trimethyldodeca-2,6,10-trienylthio)benzamido)butylphosphoramidate], for which the “Reduction of average new vessel formation versus control” value in data set [2] (setting [10]) is on record as 41.4%. Besides, the “Side effects on the ocular surface” value in data set [7] (Q-922 eye drops (7.15% formulation) applied to the ocular surface of mice) is “erythema and mild edema on the ocular surface; also recorded: erythema and edema restricted to the cornea and conjunctiva”. Further, the “Time for side effects to subside after treatment was discontinued” value in data set [7] (Q-922 eye drops applied to the ocular surface of mice) was at most 48 h. In addition, in data set [3] (setting [14]), the “Effect on AVA” value was “no significant effect” and the “Effect on NVA” value is given as “no significant effect”. Also, in data set [3] (setting [15]), the “AVA reduction versus vehicle” value amounted to 28% and the “NVA reduction versus vehicle” value came to 61%. In addition, in data set [3] (setting [16]), the “Avascular area (AVA), percent” value was 8.4% ± 0.5% and the “Neovascular area (NVA), percent” value is 9.5% ± 2.6%. Besides, in data set [3] (setting [17]), the “AVA reduction versus vehicle” value is reported as 75% and the “NVA reduction versus vehicle” value was 52%. For the same compound, in data set [3] (setting [11]), the “Avascular area (AVA), percent” value is 3.5% ± 0.5% and the “Neovascular area (NVA), percent” value was 5.2% ± 1.7%.
With `CSc1ccc(/C=C2/C(C)=C(CC(=O)O)c3cc(F)ccc32)cc1` [sulindac sulfide], the “Retinal Cmax” value in data set [6] (adult mice, single 1 μL intravitreal injection of OXT-328 1%, mean ± SEM) is given as “undetectable”. The concentration at 1 h in data set [6] (mouse) was found to be 3.1 ± 0.6 µM.
As for `CC1=C(CC(=O)O)c2cc(F)ccc2/C1=C\c1ccc(S(C)(=O)=O)cc1` [sulindac sulfone], the “Level in the cornea” value in data set [6] (adult mice, 1 h after OXT-328 3.5% eye drops (3 drops per eye), mean ± SEM) came out at 3.8 ± 0.7 µM. For the same compound, the “Retinal Cmax, fold lower than OXT-328” value in data set [6] (setting [12]) is above 30 fold. The highest concentration (Cmax) in data set [6] (setting [13]) worked out at 14.5 ± 2.4 µM.
In the case of `CC1=C(CC(=O)O)c2cc(F)ccc2/C1=C\c1ccc([S+](C)[O-])cc1` (stereo not drawn) [sulindac, reference compound], the “Retinal Cmax, fold lower than OXT-328” value in data set [6] (setting [12]) is above 30 fold. In data set [6] (mouse), the concentration at 1 h was 48.3 ± 7.9 µM. The highest concentration (Cmax) in data set [6] (mouse, retina, other: intravitreal injection) amounted to 7.1 ± 2.4 µM.
